US10093658B2, “Bifunctional compounds and use for reducing uric acid levels” (Acquist LLC, priority 2015, dated 2018)
pIC50: −log10 of the molar value. “And” between values parts separate entries of the source, which are not always exact repeats. Equal entries are not always repeated. Where two headings read alike, the source gives them in different places.

What was measured:
Xanthine oxidase = Xanthine oxidase (Homo sapiens (Human), UniProt P47989); assay: Fluorescence-based xanthine oxidase activity assay; format: biochemical; conditions: for XO inhibition (in words): qualitative statement
URAT1 (SLC22A12) = URAT1 (SLC22A12) (Homo sapiens (Human), UniProt Q96S37); assay: URAT1 (SLC22A12) cellular uptake assay, 3H-orotate transport in stably transfected URAT-1/CHO cells; conditions: for URAT1 inhibition (in words): qualitative statement
[1] = fluorescence-based assay, triplicate, 10 concentrations, read-out: Xanthine Oxidase IC50
[2] = read-out: URAT1 IC50, URAT-1/CHO cells, 3H-orotate uptake, URAT1 assay as described herein

Sequence of Xanthine oxidase (P47989 whole entry, species assumed): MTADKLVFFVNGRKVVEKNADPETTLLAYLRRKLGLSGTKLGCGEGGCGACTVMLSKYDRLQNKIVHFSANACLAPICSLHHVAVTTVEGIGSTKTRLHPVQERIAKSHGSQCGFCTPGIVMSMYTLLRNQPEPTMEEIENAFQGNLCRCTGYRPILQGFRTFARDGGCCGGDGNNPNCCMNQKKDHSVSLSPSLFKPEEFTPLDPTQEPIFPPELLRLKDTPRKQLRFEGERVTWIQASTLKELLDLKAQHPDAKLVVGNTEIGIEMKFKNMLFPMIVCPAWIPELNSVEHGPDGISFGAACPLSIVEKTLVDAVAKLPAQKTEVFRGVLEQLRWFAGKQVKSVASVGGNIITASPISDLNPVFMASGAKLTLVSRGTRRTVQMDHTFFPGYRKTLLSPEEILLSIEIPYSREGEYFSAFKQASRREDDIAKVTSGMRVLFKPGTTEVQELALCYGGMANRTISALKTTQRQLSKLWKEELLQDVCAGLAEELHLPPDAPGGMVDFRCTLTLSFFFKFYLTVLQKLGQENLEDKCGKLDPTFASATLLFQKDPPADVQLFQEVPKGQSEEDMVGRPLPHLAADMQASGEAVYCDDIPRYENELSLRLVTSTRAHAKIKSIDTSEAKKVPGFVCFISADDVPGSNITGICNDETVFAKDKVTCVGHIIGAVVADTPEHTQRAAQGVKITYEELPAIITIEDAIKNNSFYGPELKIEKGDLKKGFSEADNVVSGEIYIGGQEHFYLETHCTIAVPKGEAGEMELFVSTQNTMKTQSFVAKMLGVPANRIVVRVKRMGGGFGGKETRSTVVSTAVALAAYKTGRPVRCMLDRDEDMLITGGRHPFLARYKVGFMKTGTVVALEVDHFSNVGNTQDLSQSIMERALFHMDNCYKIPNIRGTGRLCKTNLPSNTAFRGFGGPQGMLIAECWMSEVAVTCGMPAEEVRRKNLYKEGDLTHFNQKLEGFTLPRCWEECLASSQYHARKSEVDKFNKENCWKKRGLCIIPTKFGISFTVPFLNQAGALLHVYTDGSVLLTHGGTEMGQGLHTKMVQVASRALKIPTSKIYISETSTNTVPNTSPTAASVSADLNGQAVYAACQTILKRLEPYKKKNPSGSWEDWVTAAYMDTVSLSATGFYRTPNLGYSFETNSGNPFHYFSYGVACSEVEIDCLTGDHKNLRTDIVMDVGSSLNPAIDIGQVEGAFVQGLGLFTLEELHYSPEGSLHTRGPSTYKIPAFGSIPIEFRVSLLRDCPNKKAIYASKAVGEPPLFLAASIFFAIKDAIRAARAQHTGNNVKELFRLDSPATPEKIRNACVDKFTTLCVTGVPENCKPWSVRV
Sequence of URAT1 (SLC22A12) (Q96S37 whole entry): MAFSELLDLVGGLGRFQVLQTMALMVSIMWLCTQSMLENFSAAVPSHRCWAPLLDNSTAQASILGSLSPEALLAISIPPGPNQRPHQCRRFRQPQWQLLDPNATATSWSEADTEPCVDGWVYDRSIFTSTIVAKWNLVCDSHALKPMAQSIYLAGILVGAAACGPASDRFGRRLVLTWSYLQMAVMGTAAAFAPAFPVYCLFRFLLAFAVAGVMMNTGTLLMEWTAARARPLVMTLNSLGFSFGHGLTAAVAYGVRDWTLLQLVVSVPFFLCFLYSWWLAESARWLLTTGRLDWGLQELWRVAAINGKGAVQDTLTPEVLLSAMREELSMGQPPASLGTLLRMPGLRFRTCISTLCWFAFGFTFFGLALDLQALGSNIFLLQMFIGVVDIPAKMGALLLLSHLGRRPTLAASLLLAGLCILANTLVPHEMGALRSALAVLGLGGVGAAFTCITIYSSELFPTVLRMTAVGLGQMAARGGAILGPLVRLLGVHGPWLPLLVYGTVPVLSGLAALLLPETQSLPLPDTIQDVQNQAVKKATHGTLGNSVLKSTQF

Row | SMILES | pIC50 (Xanthine oxidase; [1]) | pIC50 (URAT1 (SLC22A12); [2]) | XO inhibition (in words) (Xanthine oxidase) | URAT1 inhibition (in words) (URAT1 (SLC22A12)) | pIC50 (Xanthine oxidase) | pIC50 (URAT1 (SLC22A12))
1 | CS(=O)(=O)Nc1ccc(NC(=O)c2c(O)[nH]c(=O)[nH]c2=O)cc1 [Formula (Ib), 6-hydroxy-N-(4-(methylsulfonamido)phenyl)-2,4-dioxo-1,2,3,4-tetrahydropyrimidine-5-carboxamide] | 4.06 | – | – | – | – | –
2 | O=C(Nc1ccc2n[nH]nc2c1)c1c(O)[nH]c(=O)[nH]c1=O [Formula (IIIa), N-(1H-benzo[d][1,2,3]triazol-6-yl)-6-hydroxy-2,4-dioxo-1,2,3,4-tetrahydropyrimidine-5-carboxamide] | 5.05 | 5.87 | – | – | – | –
3 | O=C(Nc1ccc(-c2nnn[nH]2)cc1)c1c(O)[nH]c(=S)[nH]c1=O [Formula (IIb), N-(4-(2H-tetrazol-5-yl)phenyl)-6-hydroxy-4-oxo-2-thioxo-1,2,3,4-tetrahydropyrimidine-5-carboxamide] | 6.41 | 3.83 | – | – | – | –
4 | O=C(Nc1ccc(-c2noc(=O)[nH]2)cc1)c1c(O)[nH]c(=S)[nH]c1=O [Formula (Ig), 6-Hydroxy-4-oxo-N-(4-(5-oxo-4,5-dihydro-1,2,4-oxadiazol-3-yl)phenyl)-2-thioxo-1,2,3,4-tetrahydropyrimidine-5-carboxamide] | 5.48 and 5.10 | < 3.82 | acceptable XO inhibitor | poor URAT1 inhibitor | – | –
5 | O=C(Nc1ccc(-c2noc(=O)[nH]2)cc1)c1c(O)[nH]c(=O)[nH]c1=O [Formula (If), 6-hydroxy-2,4-dioxo-N-(4-(5-oxo-4,5-dihydro-1,2,4-oxadiazol-3-yl)phenyl)-1,2,3,4-tetrahydropyrimidine-5-carboxamide] | 5.32 and 5.11 | 5.12 | active against both targets | active against both targets | – | –
6 | O=C(Nc1ccc(-n2cnnn2)cc1)c1c(O)[nH]c(=O)[nH]c1=O [Formula (IIc), N-(4-(1H-tetrazol-1-yl)phenyl)-6-hydroxy-2,4-dioxo-1,2,3,4-tetrahydropyrimidine-5-carboxamide] | 4.68 | – | – | – | – | –
7 | O=C(Nc1ccc(-c2cnn[nH]2)cc1)c1c(O)[nH]c(=S)[nH]c1=O [Formula (IIf), N-(4-(1H-1,2,3-triazol-5-yl)phenyl)-6-hydroxy-4-oxo-2-thioxo-1,2,3,4-tetrahydropyrimidine-5-carboxamide] | 7.22 and 7.05 | 4.95 | comparable to febuxostat | – | – | –
8 | NS(=O)(=O)c1ccc(NC(=O)c2c(O)[nH]c(=O)[nH]c2=O)cc1 [Formula (Ia), 6-hydroxy-2,4-dioxo-N-(4-sulfamoylphenyl)-1,2,3,4-tetrahydropyrimidine-5-carboxamide] | ≤ 3.52 | – | – | – | – | –
9 | O=C(Nc1ccc(O)c(CO)c1)c1c(O)[nH]c(=O)[nH]c1=O [Formula (Id), 6-hydroxy-N-(4-hydroxy-3-(hydroxymethyl)phenyl)-2,4-dioxo-1,2,3,4-tetrahydropyrimidine-5-carboxamide] | 5.44 | 5.14 | – | – | > 5.00 | > 5.00
10 | O=C(Nc1ccc(NS(=O)(=O)C(F)(F)F)cc1)c1c(O)[nH]c(=O)[nH]c1=O [Formula (Ic), 6-hydroxy-2,4-dioxo-N-(4-(trifluoromethylsulfonamido)phenyl)-1,2,3,4-tetrahydropyrimidine-5-carboxamide] | 3.70 | – | – | – | – | –
11 | O=C(Nc1ccc(-c2nnn[nH]2)cc1)c1c(O)[nH]c(=O)[nH]c1=O [Formula (IIa), N-(4-(2H-tetrazol-5-yl)phenyl)-6-hydroxy-2,4-dioxo-1,2,3,4-tetrahydropyrimidine-5-carboxamide] | 6.17 | 5.02 | – | – | – | –
12 | O=C(Nc1ccc(-c2cnn[nH]2)cc1)c1c(O)[nH]c(=O)[nH]c1=O [Formula (IIe), N-(4-(1H-1,2,3-triazol-5-yl)phenyl)-6-hydroxy-2,4-dioxo-1,2,3,4-tetrahydropyrimidine-5-carboxamide] | 5.91 and 5.94 | 6.16 | – | – | – | –
